Reference: PubChem BioAssay AID248 (DTP/NCI, 2004)
Several values for one entry are separate records, joined by “and”; a condition that tells them apart may be missing. Equal values may be shown once. Toxic doses and inconclusive results are not listed.

Tested on: L1210 leukemia ip in BDF1 mice, survival T/C
Test: NCI In Vivo Anticancer Drug Screen. Data for tumor model L1210 Leukemia (intraperitoneal) in B6D2F1 (BDF1) mice
Details: endpoint: mean survival time, higher = longer survival
Outline: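 Mice bearing the transplanted tumor received compound or vehicle. Survival of the treated group was divided by that of the vehicle-treated control group to give the ratio.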

[1] = dose: 50.0 mg/kg/injection, schedule: Q01DX009 (ip), vehicle: saline
[2] = dose: 100.0 mg/kg/injection, schedule: Q01DX001 (ip), vehicle: saline
[3] = dose: 100.0 mg/kg/injection, schedule: Q04DX003 (ip), vehicle: Klucel (hydroxypropylcellulose) (HPC)

## c1nc(SSc2ncnc3nc[nH]c23)c2[nH]cnc2n1
dose: 0.1 mg/kg/injection, schedule: Q04DX003 (ip), vehicle: saline
  T/C: 97 % of control
dose: 0.12 mg/kg/injection, schedule: Q04DX003 (ip), vehicle: saline
  T/C: 119 % of control
dose: 0.2 mg/kg/injection, schedule: Q04DX003 (ip), vehicle: saline
  T/C: 119 % of control
dose: 0.25 mg/kg/injection, schedule: Q04DX003 (ip), vehicle: saline
  T/C: 117 % of control
dose: 0.35 mg/kg/injection, schedule: Q01DX009 (ip), vehicle: saline
  T/C: 100 % of control
dose: 0.5 mg/kg/injection, schedule: Q04DX003 (ip), vehicle: saline
  T/C: 120 % of control
dose: 0.8 mg/kg/injection, schedule: Q01DX009 (ip), vehicle: saline
  T/C: 152 % of control
dose: 0.8 mg/kg/injection, schedule: Q04DX003 (ip), vehicle: saline with Tween-80
  T/C: 98 % of control
dose: 1.6 mg/kg/injection, schedule: Q04DX003 (ip), vehicle: saline with Tween-80
  T/C: 106 % of control
dose: 3.0 mg/kg/injection, schedule: Q04DX003 (ip), vehicle: saline
  T/C: 239 % of control
dose: 3.08 mg/kg/injection, schedule: Q01DX001 (ip), vehicle: saline with Tween-80
  T/C: 121 % of control
dose: 3.25 mg/kg/injection, schedule: Q04DX003 (ip), vehicle: saline with Tween-80
  T/C: 113 % of control
dose: 5.5 mg/kg/injection, schedule: Q04DX003 (ip), vehicle: Klucel (hydroxypropylcellulose) (HPC)
  T/C: 121 % of control
dose: 6.0 mg/kg/injection, schedule: Q04DX003 (ip), vehicle: saline
  T/C: 112 % of control
dose: 7.5 mg/kg/injection, schedule: Q04DX003 (ip), vehicle: saline
  T/C: 189 % of control
dose: 10.0 mg/kg/injection, schedule: Q01DX001 (ip), vehicle: saline
  T/C: 118 % of control
dose: 10.0 mg/kg/injection, schedule: Q01DX009 (ip), vehicle: saline
  T/C: 169 % of control
dose: 12.0 mg/kg/injection, schedule: Q01DX001 (ip), vehicle: saline
  T/C: 103 % of control
dose: 12.0 mg/kg/injection, schedule: Q04DX003 (ip), vehicle: saline
  T/C: 154 % of control
dose: 15.0 mg/kg/injection, schedule: Q01DX009 (ip), vehicle: saline
  T/C: 154 % of control
dose: 15.0 mg/kg/injection, schedule: Q04DX003 (ip), vehicle: saline
  T/C: 159 % of control
dose: 25.0 mg/kg/injection, schedule: Q04DX003 (ip), vehicle: saline
  T/C: 151 % of control
dose: 26.0 mg/kg/injection, schedule: Q04DX003 (ip), vehicle: saline with Tween-80
  T/C: 157 % of control
dose: 29.7 mg/kg/injection, schedule: Q04DX003 (ip), vehicle: saline
  T/C: 106 % of control
dose: 30.0 mg/kg/injection, schedule: Q04DX003 (ip), vehicle: saline
  T/C: 90 % of control
dose: 33.0 mg/kg/injection, schedule: Q04DX003 (ip), vehicle: Klucel (hydroxypropylcellulose) (HPC)
  T/C: 120 % of control
dose: 35.0 mg/kg/injection, schedule: Q01DX009 (ip), vehicle: saline with Tween-80
  T/C: 163 % of control
dose: 35.0 mg/kg/injection, schedule: Q04DX003 (ip), vehicle: Klucel (hydroxypropylcellulose) (HPC)
  T/C: 198 % of control
dose: 39.0 mg/kg/injection, schedule: Q04DX003 (ip), vehicle: saline with Tween-80
  T/C: 172 % of control
dose: 44.0 mg/kg/injection, schedule: Q01DX009 (ip), vehicle: saline
  T/C: 100 % of control
dose: 44.0 mg/kg/injection, schedule: Q04DX003 (ip), vehicle: saline
  T/C: 202 % of control
[1]
  T/C: 106 % of control
dose: 50.0 mg/kg/injection, schedule: Q04DX003 (ip), vehicle: Klucel (hydroxypropylcellulose) (HPC)
  T/C: 152 % of control and 209 % of control
dose: 50.0 mg/kg/injection, schedule: Q04DX003 (ip), vehicle: saline
  T/C: 123 % of control and 203 % of control
dose: 52.0 mg/kg/injection, schedule: Q04DX003 (ip), vehicle: saline with Tween-80
  T/C: 168 % of control
dose: 63.0 mg/kg/injection, schedule: Q01DX Z (ip), vehicle: saline
  T/C: 95 % of control
dose: 66.0 mg/kg/injection, schedule: Q01DX001 (ip), vehicle: saline
  T/C: 157 % of control
dose: 66.0 mg/kg/injection, schedule: Q04DX003 (ip), vehicle: saline
  T/C: 216 % of control
dose: 67.5 mg/kg/injection, schedule: Q04DX003 (ip), vehicle: saline
  T/C: 106 % of control
dose: 70.0 mg/kg/injection, schedule: Q01DX009 (ip), vehicle: saline with Tween-80
  T/C: 93 % of control
dose: 70.0 mg/kg/injection, schedule: Q04DX003 (ip), vehicle: saline
  T/C: 178 % of control
[2]
  T/C: 155 % of control
[3]
  T/C: 124 % of control
dose: 140.0 mg/kg/injection, schedule: Q04DX003 (ip), vehicle: saline
  T/C: 103 % of control
dose: 200.0 mg/kg/injection, schedule: Q04DX003 (ip), vehicle: saline
  T/C: 89 % of control

## CC(C)(C)OC(=O)C1(c2ccccc2)OC1c1ccccc1 (stereo not given)
[3]
  T/C: 105 % of control
dose: 200.0 mg/kg/injection, schedule: Q04DX003 (ip), vehicle: Klucel (hydroxypropylcellulose) (HPC)
  T/C: 100 % of control
dose: 400.0 mg/kg/injection, schedule: Q04DX003 (ip), vehicle: Klucel (hydroxypropylcellulose) (HPC)
  T/C: 96 % of control

## CC12C(=O)c3ccccc3C(=O)C1C1CCCCC1=C1CCCCC12 (stereo not given)
dose: 100.0 mg/kg/injection, schedule: Q04DX002 (ip), vehicle: Klucel (hydroxypropylcellulose) (HPC)
  T/C: 93 % of control
dose: 200.0 mg/kg/injection, schedule: Q04DX002 (ip), vehicle: Klucel (hydroxypropylcellulose) (HPC)
  T/C: 93 % of control
dose: 400.0 mg/kg/injection, schedule: Q04DX002 (ip), vehicle: Klucel (hydroxypropylcellulose) (HPC)
  T/C: 101 % of control

## COc1cc(Cc2nccc3cc(OC)c(OC)cc23)c(C(C)=O)cc1OC
dose: 0.9 mg/kg/injection, schedule: Q03HX024 (ip), vehicle: saline
  T/C: 98 % of control
dose: 1.8 mg/kg/injection, schedule: Q03HX024 (ip), vehicle: saline
  T/C: 97 % of control
dose: 2.9 mg/kg/injection, schedule: Q01DX Z (ip), vehicle: saline
  T/C: 107 % of control
dose: 3.5 mg/kg/injection, schedule: Q03HX024 (ip), vehicle: saline
  T/C: 107 % of control
dose: 4.4 mg/kg/injection, schedule: Q01DX Z (ip), vehicle: saline
  T/C: 111 % of control
dose: 6.6 mg/kg/injection, schedule: Q01DX Z (ip), vehicle: saline
  T/C: 115 % of control
dose: 7.0 mg/kg/injection, schedule: Q03HX024 (ip), vehicle: saline
  T/C: 111 % of control
dose: 7.0 mg/kg/injection, schedule: Q04DX003 (ip), vehicle: saline
  T/C: 97 % of control
dose: 10.0 mg/kg/injection, schedule: Q01DX Z (ip), vehicle: saline
  T/C: 119 % of control
dose: 14.0 mg/kg/injection, schedule: Q04DX003 (ip), vehicle: saline
  T/C: 104 % of control
dose: 22.0 mg/kg/injection, schedule: Q01DX009 (ip), vehicle: saline
  T/C: 121 % of control
dose: 28.0 mg/kg/injection, schedule: Q04DX003 (ip), vehicle: saline
  T/C: 120 % of control
dose: 33.0 mg/kg/injection, schedule: Q01DX009 (ip), vehicle: saline
  T/C: 109 % of control
dose: 35.0 mg/kg/injection, schedule: Q01DX009 (ip), vehicle: saline
  T/C: 121 % of control
[1]
  T/C: 154 % of control
dose: 56.0 mg/kg/injection, schedule: Q04DX003 (ip), vehicle: saline
  T/C: 118 % of control
dose: 75.0 mg/kg/injection, schedule: Q01DX009 (ip), vehicle: saline
  T/C: 108 % of control
dose: 75.0 mg/kg/injection, schedule: Q01DX Z (ip), vehicle: saline
  T/C: 93 % of control

## O=C(Nc1cccc(C2=NCCCN2)c1)c1ccc(C(=O)Nc2cccc(C3=NCCCN3)c2)c([N+](=O)[O-])c1
dose: 0.05 mg/kg/injection, schedule: Q01DX015 (ip), vehicle: water
  T/C: 98 % of control
dose: 0.09 mg/kg/injection, schedule: Q01DX015 (ip), vehicle: water
  T/C: 96 % of control
dose: 0.19 mg/kg/injection, schedule: Q01DX015 (ip), vehicle: water
  T/C: 98 % of control
dose: 0.38 mg/kg/injection, schedule: Q01DX015 (ip), vehicle: water
  T/C: 101 % of control
dose: 0.5 mg/kg/injection, schedule: Q01DX015 (ip), vehicle: water
  T/C: 97 % of control

## N=[N+]=CC(=O)CC(N)C(=O)O (stereo not given)
dose: 50.0 mg/kg/injection, schedule: Q01DX001 (ip), vehicle: saline
  T/C: 94 % of control
[1]
  T/C: 104 % of control
[2]
  T/C: 94 % of control
dose: 100.0 mg/kg/injection, schedule: Q01DX009 (ip), vehicle: saline
  T/C: 107 % of control
dose: 128.0 mg/kg/injection, schedule: Q03HX024 (ip), vehicle: saline
  T/C: 117 % of control
dose: 200.0 mg/kg/injection, schedule: Q01DX001 (ip), vehicle: saline
  T/C: 99 % of control
dose: 200.0 mg/kg/injection, schedule: Q01DX009 (ip), vehicle: saline
  T/C: 113 % of control
dose: 256.0 mg/kg/injection, schedule: Q04DX003 (ip), vehicle: saline
  T/C: 102 % of control
dose: 400.0 mg/kg/injection, schedule: Q01DX001 (ip), vehicle: saline
  T/C: 96 % of control
dose: 512.0 mg/kg/injection, schedule: Q04DX003 (ip), vehicle: saline
  T/C: 105 % of control
dose: 1024.0 mg/kg/injection, schedule: Q04DX003 (ip), vehicle: saline
  T/C: 108 % of control
